In data set [1] the target is serotonin 2 receptor (Rattus norvegicus, UniProt P14842). The data set is described as follows: Binding test on [3H] ketanserin (serotonin 2 receptor). As to conditions: [3H] ketanserin 0.3 nM, receptor fraction of rat cerebral cortex; read-out: 5HT2.
Procedure: Use was made of SD rats aged 6 to 8 weeks.
The rats were sacrificed by dcapitation to extirpate the cerebra.
The hippocampus was mixed with 50 times (on the wet weight basis) as much a 0.32 M sucrose solution while the cortex was mixed with 10 times as much the same solution. Each mixture was homogenized by using a Teflon glass homogenizer and centrifuged at 1,000×g for 10 min. The supernatant thus obtained was further centrifuged at 20,000×g for 20 min. The obtained precipitate was re-suspended in 50 times (based on the intial wet weight; in the case of the hippocampus) or 10 times (in the case of the cortex) as much a 50 mM Tris hydrochloride (pH 7.4) and incubated at room temperature for 30 min. After centrifuging at 20,000×g for 20 min, the obtained precipitate was further suspended and centrifuged twice each in the same manner. The precipitate thus obtained was suspended in 100 times (based on the initial wet weight; in the case of the hippocampus) or 20 times (in the case of the cortex) as much a 50 mM Tris hydrochloride solution (pH 7.4) to thereby give a receptor fraction. This receptor fraction was stored at −80° C. until using.
(Binding Test on [^3H] Ketanserin)
Next, it was filtered through a glass filter with the use of a cell harvester. After washing the glass filter with 50 mM Tris hydrochloride (pH 7.4), the radioactivity of the receptor was measured with a liquid scintillation counter. The binding detected in the presence of 1 μM of methysergide was referred to as the nonspecific binding.
IC50 was calculated by the probit method, while Ki was determined in accordance with the following formula:
wherein c represents the concentration of the radioisotope-labeled compound, and Kd represents the dissociation constant of the radioisotope-labeled compound with respect to the receptor determined by Scatchard's analysis.
Data set [2] deals with α1 adrenalin receptor. The data set is described as follows: Binding test on [3H] prazosin (α1 adrenalin receptor). As to conditions: [3H] prazosin about 0.2 nM, receptor fraction of rat cerebral cortex. Further details: species or system rat.
In data set [3] the target is T1, serotonin 1A receptor (Rattus norvegicus, UniProt P19327).
T1 construct: To the receptor fraction of the hippocampus were added a test compound and 0.5 nM of [^3H]; 8-hydroxy-dipropylaminotetralin; from tissue; host or cells: SD rat hippocampus, membrane (receptor) fraction
T1 sequence (P19327 1-422): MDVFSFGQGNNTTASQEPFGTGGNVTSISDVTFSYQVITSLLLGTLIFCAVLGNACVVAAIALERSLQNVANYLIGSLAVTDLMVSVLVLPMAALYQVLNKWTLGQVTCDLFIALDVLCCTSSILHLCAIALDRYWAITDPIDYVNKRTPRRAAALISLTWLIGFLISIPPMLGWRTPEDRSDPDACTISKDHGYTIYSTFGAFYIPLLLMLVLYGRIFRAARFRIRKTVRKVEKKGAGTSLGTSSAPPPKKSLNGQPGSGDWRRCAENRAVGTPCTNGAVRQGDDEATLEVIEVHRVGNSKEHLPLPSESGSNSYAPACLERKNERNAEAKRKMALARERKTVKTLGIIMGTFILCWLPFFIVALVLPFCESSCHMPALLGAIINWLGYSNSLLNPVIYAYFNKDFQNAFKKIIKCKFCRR
The data set is described as follows: Binding test on [3H] 8-hydroxy-dipropylaminotetralin (serotonin 1A receptor). As to conditions: [3H] 8-OH-DPAT 0.5 nM, receptor fraction of rat hippocampus; read-out: 5HT1a.

serotonin 2 receptor, sequence (P14842 whole entry): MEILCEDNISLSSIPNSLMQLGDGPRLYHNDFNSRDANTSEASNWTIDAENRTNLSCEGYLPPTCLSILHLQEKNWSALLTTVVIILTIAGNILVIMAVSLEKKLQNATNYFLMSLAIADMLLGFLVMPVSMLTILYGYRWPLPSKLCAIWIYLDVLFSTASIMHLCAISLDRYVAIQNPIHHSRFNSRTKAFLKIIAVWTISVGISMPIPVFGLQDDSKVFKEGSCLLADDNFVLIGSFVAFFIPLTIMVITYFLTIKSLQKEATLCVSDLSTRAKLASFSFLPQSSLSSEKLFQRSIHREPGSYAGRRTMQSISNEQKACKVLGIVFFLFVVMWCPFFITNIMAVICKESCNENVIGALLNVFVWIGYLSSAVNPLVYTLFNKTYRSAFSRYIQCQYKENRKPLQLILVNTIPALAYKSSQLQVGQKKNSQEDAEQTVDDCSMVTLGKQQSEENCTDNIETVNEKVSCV

In general, melting point refers to the temperature, or range, at which the solid turns liquid. On to `CNC(=O)Cc1ccc2ccn(C3CCN(CCc4ccc(F)cc4)CC3)c2c1` [Example 316, 1-[1-(4-fluorophenethyl)piperidin-4-yl]-6-methylcarbamoylmethylindole], for which the melting point was 149.4 to 150.5 °C. Moreover, the Ki in data set [1] stood at 1.26 nM. In data set [2], this molecule had a Ki of 63.7 nM. The Ki in data set [3] turned out to be 1.82 nM.

Turning to `OCCCc1ccc2ccn(C3CCN(CCc4ccc(F)cc4)CC3)c2c1` [Example 321, 1-[1-(4-fluorophenethyl)piperidin-4-yl]-6-(3-hydroxypropyl)indole], the melting point lay in the range of 131 to 133 °C. Further, the Ki in data set [1] was greater than 20 nM. This molecule also came in with a Ki in data set [2] of 203 nM. The Ki in data set [3] stood at 0.14 nM.

`CS(=O)(=O)NCc1ccc2ccn(C3CCN(CCc4ccc(F)cc4)CC3)c2c1` [Example 322, 1-[1-(4-fluorophenethyl)piperidin-4-yl]-6-methanesulfonamidomethylindole] registered a melting point of 121 to 122 °C. Also, the Ki in data set [1] came out at 30.4 nM. The same molecule displayed a Ki in data set [2] of 41.3 nM. In data set [3], the Ki came to 0.08 nM.

Take `CC(C)S(=O)(=O)NCc1ccc2ccn(C3CCN(CCc4ccc(F)cc4)CC3)c2c1` [Example 323, 1-[1-(4-fluorophenethyl)piperidin-4-yl]-6-isopropylsulfonamidomethylindole]: the melting point lay within 90 to 92 °C. For the same molecule, the Ki in data set [1] was greater than 20 nM. Moreover, the Ki in data set [2] was 86.9 nM. Besides, in data set [3], the Ki amounted to 0.14 nM.

Turning to `CCCS(=O)(=O)NCc1ccc2ccn(C3CCN(CCc4ccc(F)cc4)CC3)c2c1` [Example 324, 1-[1-(4-fluorophenethyl)piperidin-4-yl]-6-n-propylsulfonamidomethylindole], the melting point lay in the range of 80 to 81 °C. Further, the Ki in data set [1] is greater than 20 nM. The Ki in data set [2] worked out at 60.9 nM. Besides, the Ki in data set [3] was found to be 0.1 nM.

`O=S(=O)(CCCCl)NCc1ccc2ccn(C3CCN(CCc4ccc(F)cc4)CC3)c2c1` [Example 325, 1-[1-(4-fluorophenethyl)piperidin-4-yl]-6-(3-chloropropyl)sulfonamidomethylindole] displayed a melting point of 143 to 145 °C. For the same molecule, the Ki in data set [1] came to 10.9 nM. Moreover, the Ki in data set [2] turned out to be 47 nM. Further, in data set [3], the Ki was 0.65 nM.

Consider `CCC(=O)NCc1ccc2ccn(C3CCN(CCc4ccc(F)cc4)CC3)c2c1` [Example 327, 1-[1-(4-fluorophenethyl)piperidin-4-yl]-6-propionylaminomethylindole], for which the melting point fell in the range of 141 to 142 °C. In addition, in data set [1], the Ki was 2.64 nM. Moreover, in data set [2], the Ki was 99 nM. Also, the Ki in data set [3] was found to be 1.04 nM.

Turning to `CC(=O)NCc1ccc2c(Cl)cn(C3CCN(CCc4ccc(F)cc4)CC3)c2c1` [Example 328, 3-chloro-1-[1-(4-fluorophenethyl)piperidin-4-yl]-6-acetamidomethylindole], the melting point fell in the range of 101 to 102 °C. Also, the Ki in data set [1] is greater than 20 nM. Besides, the Ki in data set [2] is 140 nM. Also, the Ki in data set [3] turned out to be 2.06 nM.

Regarding `OCCOc1ccc2ccn(C3CCN(CCc4ccc(F)cc4)CC3)c2c1` [Example 330, 1-[1-(4-fluorophenethyl)piperidin-4-yl]-6-hydroxyethoxyindole], the melting point lay within 118 to 119 °C. Moreover, the Ki in data set [1] was greater than 20 nM. The Ki in data set [2] was 339 nM. Moreover, the Ki in data set [3] was found to be 0.11 nM.

Consider `CS(=O)(=O)c1ccc2ccn(C3CCN(CCc4ccc(F)cc4)CC3)c2c1` [Example 331, 1-[1-(4-fluorophenethyl)piperidin-4-yl]-6-methanesulfonylindole], for which the melting point is 133 to 135 °C. In data set [1], the Ki was found to be 8.28 nM. Further, the Ki in data set [2] was determined as 77 nM. Further, the Ki in data set [3] is 0.11 nM.

The molecule `Fc1ccc(CCN2CCC(n3ccc4cc5scnc5cc43)CC2)cc1` [Example 334, 1-[1-(4-fluorophenethyl)piperidin-4-yl]thiazolo[5.4-f]indole] had a melting point of 152 to 154 °C. The Ki in data set [1] was greater than 20 nM. The molecule also gave a Ki in data set [2] of 212 nM. Moreover, in data set [3], the Ki amounted to 0.04 nM.

With `CS(=O)(=O)Oc1ccc2ccn(C3CCN(CCc4ccc(F)cc4)CC3)c2c1` [Example 336, 1-[1-(4-fluorophenethyl)piperidin-4-yl]-6-methanesulfonyloxyindole], the melting point was in the range of 213 to 215 °C. The Ki in data set [1] is greater than 20 nM. The molecule also yielded a Ki in data set [2] of 53.7 nM. In data set [3], the Ki was less than 0.2 nM.

Take `CNS(=O)(=O)Cc1ccc2ccn(C3CCN(CCc4ccc(F)cc4)CC3)c2c1` [Example 338, 1-[1-(4-fluorophenethyl)piperidin-4-yl]-6-(N-methylsulfamoylmethyl)indole]: the melting point is 172 to 175 °C. Besides, the Ki in data set [1] is greater than 20 nM. Besides, the Ki in data set [2] turned out to be 21.3 nM. For the same molecule, the Ki in data set [3] was determined as 0.07 nM.

As to `CC(=O)Nc1ccc2ccn(C3CCN(CCc4ccc(F)cc4)CC3)c2c1` [Example 339, 1-[1-(4-fluorophenethyl)piperidin-4-yl]-6-acetamidoindole], the melting point lay in the range of 195 to 196 °C. Besides, the Ki in data set [1] is greater than 20 nM. This molecule also registered a Ki in data set [2] of 31.7 nM. Further, in data set [3], the Ki was less than 0.2 nM.

Consider `CNC(=O)Cc1ccc2ccn(C3CCN(CCc4ccccc4F)CC3)c2c1` [Example 342, 1-[1-(2-fluorophenethyl)piperidin-4-yl]-6-methylcarbamoylmethylindole], for which the melting point lay in the range of 136.5 to 137.4 °C. Besides, the Ki in data set [1] was 38.1 nM. The molecule also yielded a Ki in data set [2] of 25 nM. In data set [3], the Ki came to 0.65 nM.

In turn, `CCNC(=O)Cc1ccc2ccn(C3CCN(CCc4ccccc4F)CC3)c2c1` [Example 344, 1-[1-(2-fluorophenethyl)piperidin-4-yl]-6-ethylcarbamoylmethylindole] displayed a melting point of 147 to 148.6 °C. Further, the Ki in data set [1] is 1.64 nM. In data set [2], the Ki was found to be 74.9 nM. In data set [3], the Ki was found to be 1.78 nM.

`O=C(Cc1ccc2ccn(C3CCN(CCc4ccccc4F)CC3)c2c1)NCCO` [Example 346, 1-[1-(2-fluorophenethyl)piperidin-4-yl]-6-(2-hydroxyethyl)carbamoylmethylindole] returned a melting point of 127.7 to 128.6 °C. Moreover, the Ki in data set [1] was determined as 1.49 nM. In data set [2], this molecule returned a Ki of 116 nM. In data set [3], the Ki was found to be 13.5 nM.

As for `O=C(Cc1ccc2ccn(C3CCN(CCc4ccc(F)cc4)CC3)c2c1)NCC1OCCO1` [Example 347, 1-[1-(4-fluorophenethyl)piperidin-4-yl]-6-(1,3-dioxolan-2-ylmethyl)carbamoylmethylindole], the melting point is 173.8 to 174.6 °C. Further, the Ki in data set [1] was found to be 0.65 nM. The Ki in data set [2] was found to be 44.3 nM. Also, in data set [3], the Ki was found to be 2.24 nM.

In turn, `CC(=O)NCc1ccc2ccn(C3CCN(CCc4ccc(Cl)cc4)CC3)c2c1` [Example 349, 1-[1-(4-chlorophenethyl)piperidin-4-yl]-6-acetamidomethylindole] gave a melting point of 148 to 149 °C. In addition, the Ki in data set [1] was found to be 8.12 nM. Moreover, the Ki in data set [2] worked out at 88.5 nM. Besides, the Ki in data set [3] worked out at 0.22 nM.

On to `CC(=O)NCc1ccc2ccn(C3CCN(CCc4cccc(F)c4)CC3)c2c1` [Example 350, 1-[1-(3-fluorophenethyl)piperidin-4-yl]-6-acetamidomethylindole], for which the melting point was in the range of 134 to 135 °C. Further, the Ki in data set [1] is 11.4 nM. The same molecule had a Ki in data set [2] of 123 nM. Also, the Ki in data set [3] turned out to be 1.92 nM.

Turning to `COc1ccc(CCN2CCC(n3ccc4ccc(CNC(C)=O)cc43)CC2)cc1` [Example 351, 1-[1-(4-methoxyphenethyl)piperidin-4-yl]-6-acetamidomethylindole], the melting point lay in the range of 101 to 102 °C. Besides, in data set [1], the Ki was greater than 20 nM. Also, in data set [2], the Ki was 175 nM. Moreover, the Ki in data set [3] was 0.27 nM.

As to `CC(=O)NCc1ccc2ccn(C3CCN(CCc4ccccc4F)CC3)c2c1` [Example 352, 1-[1-(2-fluorophenethyl)piperidin-4-yl]-6-acetamidomethylindole], the melting point lay within 101 to 102 °C. Moreover, the Ki in data set [1] turned out to be 0.75 nM. For the same molecule, the Ki in data set [2] was determined as 96.7 nM. Also, the Ki in data set [3] is 1.58 nM.

The molecule `O=C1CNC(=O)N1Cc1ccc2ccn(C3CCN(CCc4ccc(F)cc4)CC3)c2c1` [Example 353, 1-[1-(4-fluorophenethyl)piperidin-4-yl]-6-(2,4-imidazolidinedion-3-yl)methylindole] returned a melting point of 156 to 157 °C. For the same molecule, the Ki in data set [1] was determined as 12.6 nM. In data set [2], the Ki came out at 144 nM. Besides, the Ki in data set [3] was 0.78 nM.

The molecule `CC(C)C(=O)NCc1ccc2ccn(C3CCN(CCc4ccc(F)cc4)CC3)c2c1` [Example 354, 1-[1-(4-fluorophenethyl)piperidin-4-yl]-6-isobutyrylaminomethylindole] came in with a melting point of 97 to 98 °C. Also, the Ki in data set [1] came to 4.79 nM. Also, the Ki in data set [2] was found to be 90.5 nM. The Ki in data set [3] was found to be 1.22 nM.

Regarding `O=C(NCc1ccc2ccn(C3CCN(CCc4ccc(F)cc4)CC3)c2c1)C1CC1` [Example 363, 1-[1-(4-fluorophenethyl)piperidin-4-yl]-6-cyclopropanecarboxamidomethylindole], the melting point lay in the range of 116 to 117 °C. Moreover, the Ki in data set [1] is 3.39 nM. The molecule further gave a Ki in data set [2] of 106 nM. Moreover, in data set [3], the Ki was determined as 1.5 nM.
